Consider 80 compounds from ChEMBL document CHEMBL3988442, “University of Dundee, Small-Polar-MMV Screening Library” (2021).

One assay is described as follows: In vitro enzyme assay to detect hydrolysis of chlorophenol red-beta-D-[…] directly proportional to the number of Toxoplasma stably expressing beta-galactosidase. Format: functional, organism-based, Toxoplasma gondii.
Conditions: not given
The pIC50 is the negative decadic logarithm of the IC50, by convention in mol/L. Take `Cc1nc(N2CCN(C(=O)c3ccco3)CC2)c2c(n1)c(C)nn2C`: the negative logarithm of the IC50 (pIC50) stood at 4.358.
As for `CCc1nc(Nc2ccc(C(=O)NC)cc2)c2c(n1)c(C)nn2CC`, the negative-log IC50 (pIC50) is under 4.3.
As to `CC(=O)N1CC2(CCCN(Cc3ccc(Cl)cc3)C2)Cc2ccccc21` (centres undefined), the pIC50 was 4.953.
In turn, `c1nc(N2CCOCC2)nc2c1COCC21CCN(CC2CC2)C1` (centres undefined) had a pIC50 of under 4.3.
As for `O=C(c1ccc(COc2ccccc2Cl)o1)N1N=CCC1(O)C(F)(F)F` (centres undefined), the pIC50 is recorded as 5.104.
`Cc1cccc(NC(=O)C2CC(=O)n3cnnc3S2)c1` (centres undefined) had a pIC50 of 4.363.
`Cn1nnc2c1C(COCC1CC1)CN(C(=O)Cc1cccs1)C2` (centres undefined) came in with a pIC50 of 4.541.
On to `COC(=O)CC(C1=Cc2ccccc2OC1)c1oc(C)cc(=O)c1O` (centres undefined), for which the negative logarithm of the IC50 (pIC50) was determined as 4.537.
Compound `CCc1cc(N2CCC(NCCc3ccccc3F)CC2)nc(C)n1` yielded a pIC50 of 4.968.

Staying with this assay, now noted: Toxoplasma gondii.
Broadly, the IC50 is the concentration that inhibits the measured activity by half. A low value points to inhibition by little substance. The compound `Cc1nc(N2CCN(C(=O)c3ccco3)CC2)c2c(n1)c(C)nn2C` gave an IC50 of over 50.1 µM.
Compound `COCCN(CCOC)CC(=O)N(C)C` showed an IC50 of over 50.1 µM.
In turn, `CC(C)n1ccc(CN2C(=O)CC(C)(C)C2=O)n1` showed an IC50 of over 50.1 µM.
Still for that read-out and setting: next, `Cn1ncc(C(=O)N2CCN(C(=O)c3ccco3)CC2)c1Cl`: over 50.1 µM; `COc1ccc(C2CCCN2c2ccnc(C)c2Cl)c(OC)c1` (centres undefined): 14 µM; `CC(=O)c1cccc(OCC(=O)Nc2cc(C)on2)c1`: over 50.1 µM.
In turn, `CCc1nc(Nc2ccc(C(=O)NC)cc2)c2c(n1)c(C)nn2CC` showed an IC50 of 37.2 µM.
Same read-out and setting: next, `COc1ccc(-n2nnc(C(=O)O)c2-c2ccccn2)cc1`: 24.8 µM.
In turn, `C1CN[C@@H]2CNC[C@@H]2C1` gave an IC50 of over 50.1 µM.
`CC(=O)NCCCS(=O)(=O)c1ncccc1Cl` had an IC50 of over 50.1 µM.
Compound `O=C(N1CCOCC1)[C@@]12CCO[C@@H]1CCN(C1CCOCC1)C2` had an IC50 of over 50.1 µM.
With `COCC(=O)N1CCn2c(COc3cccnc3)cnc2C1C` (centres undefined), the IC50 is over 50.1 µM.
In turn, `CC(=O)N1CC2(CCCN(Cc3ccc(Cl)cc3)C2)Cc2ccccc21` (centres undefined) showed an IC50 of 10.4 µM.
In turn, `CSCC(=O)NC(C1CCNCC1)[C@H]1C[C@@H](O)C1` (some centres undefined) showed a 50% inhibitory concentration (IC50) of over 50.1 µM.
Compound `Cc1ccc(C(=O)NCCN2CCOCC2)c(C)c1` showed an IC50 of over 50.1 µM.
`CCOCC(=O)N1CCCn2ccnc2C1C(C)C` (centres undefined): the IC50 is over 50.1 µM.
Compound `Cc1[nH]c2ccccc2c1-c1ccnc(N[C@H](CO)CC(C)C)n1` gave an IC50 of over 50.1 µM.
In the case of `CC(=O)Nc1ccc(S(=O)(=O)N2CCC(N)CC2)cc1`, the IC50 was over 50.1 µM.
The same measure, in the same setting: the figure for `CC(C)(CO)NCC(O)c1cccc(F)c1` (centres undefined) is over 50.1 µM; for `Nc1c[nH]nc1-c1ccccn1` it is over 50.1 µM; for `CC(C)(CO)NCC(O)c1cccc(Cl)c1` (centres undefined) it is over 50.1 µM.
Still for that read-out and setting: the figure for `Cc1cnc(N)c(C)c1` is over 50.1 µM; for `CCOCCCNc1cc(C)nn2cnnc12` it is over 50.1 µM.
The same measure, in the same setting: next, `Cc1ccoc1C(=O)NC1CCN(Cc2csc3c(F)cccc23)CC1`: 8.38 µM; `O=C(COc1ccc2c(c1)CCC2)NCc1ccco1`: 35.5 µM; `CN1C(=O)c2cccn2CC1CNC(=O)c1ccco1` (centres undefined): over 50.1 µM.
Compound `COC(C)CCC(=O)NCc1cn2ccccc2n1` (centres undefined) showed an IC50 of over 50.1 µM.
As for `CCNC(=O)CN1CCCC(c2nccn2CC)C1` (centres undefined), the IC50 is over 50.1 µM.
Still for that read-out and setting: the figure for `Cc1noc(CCCNC(=O)c2ccon2)n1` is over 50.1 µM.
As to `CCc1ccccc1NC(=O)C1=NN(C)C(=O)CC1`, the IC50 was over 50.1 µM.
For the compound `Cc1ncc(CN2CCOC(c3ccc(-c4ccccc4F)cn3)C2)s1` (centres undefined), half-maximal inhibition (IC50) required 9.61 µM.
Same read-out and setting: next, `Cc1c(S(=O)(=O)N2CCOCC2)cc2c(C)cc(=O)n3c2c1CCC3`: over 50.1 µM; `COc1c(CNC2(c3noc(C)n3)CCC2)c(C)nn1C`: over 50.1 µM; `CCCc1nc(NCCCn2ccnc2)c2c(n1)c(C)nn2CC`: over 50.1 µM.
Consider `CNC(=O)C1(N(C)CCc2ccccc2)Cc2ccccc2C1`, for which the IC50 was 11.3 µM.
On the same count and under the same terms, the figure for `Fc1cc(Cl)cnc1N1CCCC(c2nccn2Cc2ccccn2)C1` (centres undefined) is over 50.1 µM; for `NC1CCN(CC(F)F)CC1` it is over 50.1 µM.
Consider `CCCc1ccc(C(=O)N[C@@H]2CCOC[C@H]2O)cc1`, for which the IC50 is over 50.1 µM.
`CC(c1cccs1)n1nccc1N` (centres undefined) had an IC50 of over 50.1 µM.
On the same count and under the same terms, next, `CCNC1CCS(=O)(=O)C1` (centres undefined): over 50.1 µM; `Cc1cc(=O)n2c3c(cc(S(=O)(=O)NC4CC4)cc13)CCC2`: over 50.1 µM.
The same measure, in the same setting: next, `CCNC(C)(C)C(=O)N(C)Cc1ccc(OC)c(F)c1`: over 50.1 µM.
`c1nc(N2CCOCC2)nc2c1COCC21CCN(CC2CC2)C1` (centres undefined) showed an IC50 of 44 µM.
For the compound `Cc1cc(=O)cc(C(=O)NCCC(C)n2ccnc2)o1` (centres undefined), the IC50 was over 50.1 µM.
On the same count and under the same terms, the figure for `O=C(c1ccc(COc2ccccc2Cl)o1)N1N=CCC1(O)C(F)(F)F` (centres undefined) is 6.07 µM.
Consider `Cc1nc(N2CCN(c3ccccc3)CC2)c2c(n1)c(C)nn2C`, for which the IC50 is over 50.1 µM.
Compound `Cc1cccc(NC(=O)C2CC(=O)n3cnnc3S2)c1` (centres undefined) had an IC50 of over 50.1 µM.
The compound `Cn1nnc2c1C(COCC1CC1)CN(C(=O)Cc1cccs1)C2` (centres undefined) showed an IC50 of 30.9 µM.
`O=C(Nc1ccc(Br)cn1)C1CCCNC1` (centres undefined) showed an IC50 of over 50.1 µM.
The compound `CSCC(CCO)NC(=O)c1cc(F)ccc1O` (centres undefined) showed an IC50 of over 50.1 µM.
The compound `Cc1nc2cc(C3CCN(Cc4cccc(F)c4F)C3)nn2c(O)c1C` (centres undefined) gave an IC50 of 10.5 µM.
In turn, `CC(=O)c1ccc(OCC(O)Cn2ccnc2)cc1` (centres undefined) showed an IC50 of over 50.1 µM.
Turning to `O=C(c1ccc(-c2ccc(O)nc2)s1)N1CCCCCC1`, the half-inhibitory concentration (IC50) was over 50.1 µM.
In turn, `O=C1CN(CC(=O)Nc2c(Cl)cccc2Cl)CCN1` gave an IC50 of over 50.1 µM.
`CS(=O)(=O)N1CCOCC2(CCN(c3ccccn3)C2)C1` (centres undefined) showed an IC50 of over 50.1 µM.
`Cc1cc(C(=O)N(C)Cc2cccs2)nc(N2CCCCC2)n1` gave an IC50 of over 50.1 µM.
For the compound `Cc1cncc(C(N)=O)c1`, the IC50 is over 50.1 µM.
For `CC(C)(CO)C(N)c1ccccc1` (centres undefined), the IC50 is over 50.1 µM.
On the same count and under the same terms, the figure for `CNC(=O)NCc1cccnc1OC1CCCC1` is over 50.1 µM.
The compound `Cc1cccc(Cn2cc(Br)c(NS(C)(=O)=O)n2)c1` had an IC50 of over 50.1 µM.
Turning to `Cc1ccc(Cl)cc1NC(=O)CN1CCNC(=O)C1`, the IC50 is over 50.1 µM.
On the same count and under the same terms, the figure for `COc1ccc(NCC(=O)N2CCNC(=O)C2)c(C)c1` is over 50.1 µM; for `NC1CCN(C(=O)C2(c3cccc(F)c3)CC2)CC1` it is over 50.1 µM; for `CCCc1nc(NCCOC)c2c(n1)c(C)nn2CC` it is over 50.1 µM.
As for `Cc1cnc(NC(=O)c2cccc(CN(C)Cc3ncccc3C)c2)s1`, it took 13.6 µM to reach half-maximal inhibition (IC50).
In turn, `COC(=O)CC(C1=Cc2ccccc2OC1)c1oc(C)cc(=O)c1O` (centres undefined) had an IC50 of over 50.1 µM.
In the case of `CCC(CC)(CC)SCC(=O)N1CCNC(=O)C1`, the IC50 is over 50.1 µM.
`Cc1ccc(CN2CCC(C3CCNC3)CC2)nc1` (centres undefined) showed a half-maximal inhibitory concentration (IC50) of over 50.1 µM.
The compound `O=C(NCCC1=CCCCC1)c1cc(-c2ccc(O)cc2)n[nH]1` had an IC50 of 0.391 µM.
Compound `O=C1c2ccc(F)cc2C(=O)N1Cc1nnsc1Cl` had an IC50 of over 50.1 µM.
For the compound `CN(CCNS(C)(=O)=O)CCSc1ccccc1`, the IC50 is over 50.1 µM.
In turn, `Cc1cc(C(=O)Nc2cnn(CC(F)(F)F)c2)nc(N2CCOCC2)n1` gave a half-maximal inhibitory concentration (IC50) of over 50.1 µM.
Same read-out and setting: next, `CCCC(N)C(=O)N(C)Cc1cccc(N(C)C)c1` (centres undefined): over 50.1 µM; `CCn1nc(C)c2nc(C(C)C)nc(NCC(C)O)c21` (centres undefined): over 50.1 µM.
As for `Cc1cc(-c2nc(C3CCOC3)no2)n(C)n1` (centres undefined), the IC50 is over 50.1 µM.
As to `COCCN(Cc1ccccc1Cl)c1nc(CCN)nc2ccccc12`, half-maximal inhibition (IC50) required 13 µM.
`CCc1cc(N2CCC(NCCc3ccccc3F)CC2)nc(C)n1` gave an IC50 of 8.65 µM.
Consider `CCCn1c(N2CCCCC2)nc2c(C)nn(C)c2c1=O`, for which the IC50 was 34.4 µM. This IC50 lies about 4-fold higher than the previous one.
As for `CCN1CCN(Cc2nnnn2C2CC2)CC1`, the IC50 was over 50.1 µM.
The compound `CCCn1c(NCCc2ccccc2)nc2c(C)nn(C)c2c1=O` showed an IC50 of 31.5 µM.
